One block for each compound: values may come before it.
Tests used:
cellular reprogramming = experiment: Enhancement of cellular reprogramming by nuclear receptor ligands; assay type: cell-based
[1] = tested on: mouse embryonic fibroblasts (129 or OG2 MEFs); experiment: Screen for iPSC generation from MEFs transduced with Oct4/Klf4 (OK); assay type: cell-based
Description: Unmodified MEFs derived from E13-14 embryos of the 129 mice were used for the initial screen. MEFs were plated on Matrigel at 3.5×10^4 cells/well of a 6-well plate and transduced with OK (retroviral vectors expressing Oct4 and Klf4) alone. Within 14-21 days, treated cells were assessed for the appearance of colonies that had the characteristic embryonic stem cell (ESC) colony morphology and were positive for the pluripotency marker alkaline phosphatase (ALP). Such OK-transduced cells generated only a few small non-compact colonies, which were weakly positive for ALP expression. These colonies initially appeared within 21 days after viral transduction and were difficult to expand. Therefore, such assay system offered a clean background for the identification of small molecules having desirable reprogramming inducing activity. Using this system, compounds from a library of around 2000 known small molecules (see Experimental Procedures below) were screened and were identified as hits when they induced the appearance of ESC colonies that were strongly positive for ALP within 14-21 days after treatment. This image-based method provided a more accurate assessment of reprogramming as compared to homogenous reporter-based assay. BIX appeared to have the strongest effect with reproducible induction of more than 1-2 compact ESC-like colonies with high ALP expression. We observed that when MEFs were treated with BIX after OK viral transduction, compact colonies with strong ALP expression could be readily detected within approximately 14-21 days. These cells were also positive for Nanog, Oct4 and SSEA-1 expression. […] However, the reprogramming efficiency in MEFs transduced with OK and treated with BIX was still low, about 2 colonies/3.5×10^4 cells, in comparison to the four factor-induced reprogramming of MEFs or the OK/BIX NPC reprogramming (Shi, Y. et al., Cell Stem Cell, 2:525-528 (2008)). Therefore, we conducted a second screen using a similar protocol, but where BIX was added to the basal media after OK viral transduction. This provided a more permissive platform to identify new small molecules that could further improve reprogramming efficiency. More importantly, this second screen could facilitate discovery of small molecules that impact reprogramming in a more specific manner, for example by acting on signal transduction pathways rather than on histone or DNA modifying enzymes. In this second screen, we again assayed the library of around 2000 known small molecules (see Experimental Procedures), and confirmed two compounds that were able to act in a synergistic manner with BIX to improve reprogramming based on the criteria of the screen. […] Therefore, RG108 was not pursued further for this study. Instead, we focused our phenotypic and functional characterization on another small molecule that was identified in the second screen, BayK, an L-calcium channel agonist. […] Therefore, BayK might play a more specific role in the reprogramming process. When 129 MEFs were transduced with empty retrovirus (negative control); no colonies observed. When 129 MEFs were transduced with OK without small molecules; few small flattened colonies with weak ALP expression present. […] When OK-transduced MEFs were treated with BIX in combination with BayK, a significant increase in the number of ALP^+ colonies that closely resemble the mESC morphology could be observed (˜7 colonies) as compared to OK-transduced MEFs treated with BIX alone (˜2 colonies).
Primary 12952/SvPasCrlf (primary screen) or ROSA26^+/−/OG2^+/− (secondary screen) MEFs were plated onto Matrigel (1:50; BD Biosciences, Bedford, Mass.) coated dishes at a density of 3.5×10^4 cells per well of a 6-well plate. Twenty-four hours later, these cells were transduced overnight with defined retroviruses at 37° C., 5% CO2. […] (all products were from Invitrogen, Carlsbad, Calif., except where mentioned). […]

OG2+/-/ROSA26+/- MEFs = experiment: Assessment of SOX2 expression after compound treatment (RT-PCR); assay type: cell-based, mouse; conditions: 2 μM BayK, 1 μM BIX, 6 days
Description: OG2^+/−/ROSA26^+/− MEFs were plated onto 6-well plate at a density of 3.4×10^4 cells per well. On the following day, the cells were treated with DMSO, 1 μM BIX, 2 μM BayK, and a combination of both, in triplicate, for 6 days. The media was refreshed at day 3. RNA from each well was then isolated using the RNAeasy Mini Kit (Quiagen). Reverse transcription of the RNA was performed using the iScript™ cDNA Synthesis Kit (BioRad, Hercules, Calif.). Amplification of endogenous Sox2 was done using primers previously published (Takahashi, K., Okita, K., Nakagawa, M., and Yamanaka, S. (2007). Induction of pluripotent stem cells from fibroblast cultures. Nat Protoc 2, 3081-3089; Takahashi, K., and Yamanaka, S. (2006). Induction of pluripotent stem cells from mouse embryonic and adult fibroblast cultures by defined factors. Cell 126, 663-676) with Platinum PCR SuperMix (Invitrogen) on a Mastercycler® ep gradient PCR machine (Eppendorf).

mES R1 cells = experiment: Proliferation assay; assay type: cell-based, mouse; conditions: 2 μM BayK, 1 μM BIX; 15, 24, 48 hours; vs DMSO
Description: mES R1 cells were plated onto gelatin-coated 6-well plates at a density of 2×10^5 cells/well in complete mES cell media. Upon cell attachment, app. 12 hours, the cells were treated either with DMSO, 1 μM BIX, 2 μM BayK, and a combination of both, in triplicate. At 15, 24 and 48 hours, the cells were detached using trypsin, and counted using a hemocytometer. Trypan blue (Sigma-Aldrich, St. Louis, Mo.) was used for dead cell exclusion.

[2] = tested on: human primary fibroblasts (CRL2097 or BJ); experiment: Reprogramming of human primary fibroblasts transduced with 4TFs; assay type: cell-based
Description: We tested known inhibitors of the TGFβ receptor and MEK on 1×10^4 [Feng, B. et al., Cell Stem Cell 4, 301-12 (2009)] human primary fibroblasts (CRL2097 or BJ) that were retrovirally transduced with the 4TFs (Oct4, Klf4, Sox2 and c-Myc), for their effects on reprogramming kinetics and efficiency. On day 7 (D7) post-infection, the compounds were added, individually or in combinations, and the cultures were examined for iPSCs over the next 1-3 weeks.
The Slc7a1-expressing human fibroblast cells were seeded at 1×10^5 cells/well of a 6 well plate on the day 1. On day 2, 0.25 ml of each retroviral supernatant was added to the cells in the presence of 6 μg/ml polybrene. A second round of transduction was done on day 3. Infection efficiency was estimated by fluorescence microscopy on cells transduced in parallel with GFP or RFP gene-carrying retroviruses. Seven days after initial transduction, fibroblasts were harvested by trypsinization and re-plated at 1×10^4 cells/well of a 6 well plate coated with matrigel (1:50 dilution, cat 354234, BD Biosciences). For compound treatment, the cells were cultured in human reprogramming medium (DMEM/F12, 20% Knockout serum replacer, lx MEM Non-Essential amino acid, lx glutamax, 0.11 mM 2-Mercaptoethanol, 20 ng/ml bFGF and 1,000 U/ml LIF) and were treated with 2 μM SB431542 (Stemgent), 0.5 μM PD0325901 (Stemgent), or combinations of the compounds. The media were changed every 2-3 days depending on the cell density. Seven days after compound treatment, either the plates were fixed and stained for Alkaline phosphatase (ALP) activity, or stained for protein markers, or the cultures were continued with or without indicated splitting by trypsinization till day 30. For split cultures, the cells were split (1:4) and re-plated onto irradiated CF-1 MEF feeder layer (2.5×10^5 cells/well) in each well of 6 well plate and were split (1:10) again on day 21. The cells were maintained in the same media and compound cocktail described above except for the concentrations of PD0325901 (0.5 μM for D14 and 1 μM for D21) and SB431542 (0.5-1 μM after D14). The iPSC colonies were subsequently maintained in conventional hESC media in the absence of the above compounds.
Alkaline phosphatase staining was performed using ALP detection kit (cat no: SCR004, Chemicon) according to the product instructions. For immunocytochemistry, cells were fixed in 4% paraformaldehyde (10 min, RT), washed twice with PBS, blocked using 5% normal donkey serum (Chemicon) and 0.1% TritonX-100 (15 min, RT) and then treated with primary antibodies overnight at 4° C. The primary antibodies used were anti-NANOG (cat no: AB9220, Chemicon, 1:1,000); anti-OCT4 (cat no: sc-5279, Santa Cruz biotech, 1:200), anti-SSEA 4 (cat no: mab4304, Chemicon, 1:500), anti-Tra-1-81 (cat 560123, BD Biosciences, 1:100), anti-Tra-1-81 (mAb 4381, Chemicon, 1:500), anti-βIII TUBULIN (cat no: MMS-435P, Covance Research Products Inc, 1:1000), anti-PDX 1 (1:500) (a kind gift from Dr. C. Wright), anti-BRACHYURY (cat No: AF2085, R & D, final concentration 0.2 μg/ml). The cells were washed twice with PBS and then treated with secondary antibodies for 1 hour at room temperature. The secondary antibodies used were Alexa fluor 488 donkey anti-rabbit or anti-mouse IgG (Invitrogen, 1:1,000) and Alexa fluor 555 donkey anti-rabbit or anti-mouse IgG (Invitrogen, 1:1,000). Nuclei were stained with 0.5 μg/ml DAPI (Sigma). Images were captured using a Nikon Eclipse TE2000-U/X-cite 120 EXFO microscope with a photometric CoolSnap HQ2 camera.
We tested the TGFβ receptor inhibitor (SB431542), MEK inhibitor (PD0325901) and GSK-3 inhibitor (CHIR99021), on human fibroblast crl2097 that were retrovirally transduced with Oct4, Klf4, Sox2 and c-Myc, for their effects on reprogramming kinetics and efficiency. Conditions are the same as set forth in Example 5. Data were collected 8 days after compound treatment.

mouse fibroblasts = experiment: Reprogramming of mouse fibroblasts with exogenous poly-Arg transcription factor proteins; assay type: cell-based; conditions: cells incubated with transcription factor proteins plus agent
Description: Mouse fibroblasts were grown in mESC medium supplemented with 8 μg/ml of either Oct4/Sox2/Klf4 or Oct4/Sox2/Klf4/Myc (all proteins comprising poly-Arg as described above) for 6-8 hours, washed, and incubated for 2-3 days in mESC media without the above-listed transcription factors. This (4-12 hours with, 1-3 days without) was repeated a number (1, 2, 3, 4, or more) of times and then the cells were cultured in mESC for two weeks.
Mouse fibroblasts were grown in mESC growth medium [Knockout DMEM (Invitrogen) supplemented with 10% ES-FBS+10% KSR, 0.1 mM 2-ME, 1% Glutamax, 1% Non-essential amino acids, 1% EmbryoMax ESC Qualified Nucleosides (Millipore), and 10^3 units/ml LIF (ESGRO, Chemicon International)] supplemented with 8 μg/ml of Oct4/Sox2/Klf4/Myc (all four transcription factors are tagged with poly-Arg […]; SEQ ID NO:2) for 4-12 hours, followed by culturing the cells in the absence of the Oct4/Sox2/Klf4/Myc polypeptides for one day. This procedure was repeated 4 times. The cells were then cultured in mESC medium for another two weeks. iPSC clones were detected by colony morphology and expression of pluripotency markers. An intermediate iPSC clone, which expresses ALP but not Oct4 (Oct4), was dissociated with Trypsin-EDTA. The clone was then expanded by continuous culturing with regular mESC medium or medium supplemented with 0.5 μM PD0325901, 3 μM CHIR99021, 0.5 μM A-83-01. The number of Oct4-positive colonies were counted 2 weeks after small molecule treatment (FIG. 14).

OG2 MEFs = experiment: Reprogramming of OG2 MEFs retrovirally transduced with OSKM or OSK (EGFP positive colonies); assay type: cell-based, mouse; conditions: 2 μM SB431542, 5 μM CHIR99021, 0.1 μM PD0325901
Description: MEFs were derived from OG2 mice according to the protocol reported on WiCell Research Institute website: “Introduction to human embryonic stem cell culture methods”. OG2 transgenic mice carry both GFP under the control of the Oct4 promoter. MEFs were transduced with either (1) Oct4, Klf4, Sox2 and c-Myc; or (2) Oct4, Klf4, and Sox2 as described (Takahashi & Yamanaka, Cell. 2006; 126:663-676). […] Transduced MEFs were then treated with chemicals or chemical combinations, including GSK-3 inhibitor CHIR99021 (5 μM), TGFβ receptor inhibitor SB431542 (2 μM), MEK inhibitor PD0325901 (0.1 μM) for 11 days (for Oct4, Klf4, Sox2 and c-Myc transduced MEFs) or 13 days (for Oct4, Klf4 and Sox2 transduced MEFs), and EGFP positive colonies were counted.

- cellular reprogramming (cellular reprogramming; used at 5 μM): can enhance cellular reprogramming
SMILES: CC(C)C[C@H](NC(=O)OCC1c2ccccc2-c2ccccc21)C(=O)O [Fmoc-Leu]

SMILES: COC(=O)C1=C(C)NC(C)=C([N+](=O)[O-])C1c1ccccc1C(F)(F)F (stereo not shown) [BayK8644]
- reprogramming efficiency (GFP+ colonies) ([1]; OG2 MEFs transduced with OK, FIG. 3): did not increase reprogramming efficiency above OK-transduced MEF control
- reprogramming activity on OK-transduced MEFs ([1]; in the absence of BIX): no observable reprogramming activity on OK-transduced MEFs in the absence of BIX
- SOX2 expression (OG2+/-/ROSA26+/- MEFs): does not induce SOX2 expression
- proliferation of mES cells (cell number) (mES R1 cells): does not lead to a change in proliferation

SMILES: NC(=O)c1ccc(-c2nc(-c3ccc4c(c3)OCO4)c(-c3ccccn3)[nH]2)cc1 [SB431542]
- ALP+ colonies with hESC-like morphology (FIG. 7A) ([2]; 4TFs transduced fibroblasts, 7 days after compound treatment, SB431542 at 2 μM): yielded colonies with hESC-like morphology as early as 7 days after compound treatment
- number of granulate (partially reprogrammed) colonies ([2]; 30 days): outnumbered by several fold the few hESC-like colonies
- dose dependence of effect on reprogramming ([2]; FIG. 7): dose dependent
- ALP+ colonies with characteristic hESC-like morphology ([2]; day 7 post-treatment (D14), SB431542 2 μM, PD0325901 0.5 μM, 1×10^4 cells): 1-2 colonies
- efficiency and speed of development of pluripotent cells (mouse fibroblasts): improved efficiency and speed of development of pluripotent cells
- reprogramming efficiency (OG2 MEFs; Oct4, Klf4, Sox2 and c-Myc transduced MEFs, 11-day treatment): ~1.8%
- reprogramming efficiency (OG2 MEFs; Oct4, Klf4, and Sox2 transduced MEFs, 13-day treatment): ~1.2%

- cellular reprogramming (cellular reprogramming; at 3 μM): can enhance cellular reprogramming
SMILES: C=C(c1ccc(C(=O)O)cc1)c1cc2c(cc1C)C(C)(C)CCC2(C)C [Bexarotene]
